According to patent publication US6949575B2, “Method of inhibiting amyloid protein aggregation and imaging amyloid deposits using aminoindane derivatives” (Pfizer Inc., priority 2000, dated 2005):
Where “and” joins values, the source holds several entries; their conditions need not be identical. Identical values can stand only once.

Columns and labels:
Aβ (1-42) = molecular target: T1, Aβ (1-42) (Homo sapiens, UniProt P05067); test: Batym Assay: Aβ (1-42) aggregation, Thioflavin T fluorescence; type: biochemical; conditions: Aβ1-42 final 100 μM, 37° C., 1 day, read-out: BAYTM IC50
T1 construct: Required Aβ (1-42) (California Peptide); purchased California Peptide
Description: Required Aβ (1-42) (California Peptide) was dried from its HFIP stock solution. The Aβ (1-42) was dissolved in DMSO and then mixed with phosphate buffered saline (PBS) (pH 7.4). The mixed Aβ (1-42) solution was filtered with a Omnipore membrane 0.2-μm syringe filter (Millipore, Bedford, Mass.). The compound to be tested in DMSO (50× concentrate) was put into each well (0.5 μL/well) of a 96-well plate. The Aβ (1-42) solution was added into each well (24.5 μL/well). The plate was centrifuged at 1,000 g for 5 minutes and incubated at 37° C. for 1 day (Aβ1-42; final concentration 100 μM).
After incubation, Thioflavin T (ThT) (30 μM) solution in glycine-NaOH buffer (pH 8.5, 50 mM) was added into each well (250 μL/well), fluorescence was measured (ex=440/20 nm; em=485/20 nm) using a fluorescence plate reader. The inhibitory activity was calculated as the reduction of fluorescence with the following formula: Inhibition (%)={(F(Aβ)−F(Aβ+compound)}/{F(Aβ)−[…]}×100
The IC50s were calculated by a curve fitting program using the following equation. The data were obtained from two different experiments in triplicate. Inhibition (x)=100−100/{1+(x/IC50)^n}. • x=concentration of tested compound (M). • IC50=(M). • n=Hill coefficient.

Soluble Aβ(1-40) peptide = molecular target: T2, Soluble Aβ(1-40) peptide (Homo sapiens, UniProt P05067); test: BASSR (Beta-Amyloid Self-Seeding Radioassay): inhibitors of self-seeded amyloid fibril growth; type: biochemical; conditions: 30 μM soluble Aβ(1-40) + 125I-labeled Aβ(1-40), 37° C., 3 to 5 hours, filtration; replicate values
T2 construct: Soluble Aβ(1-40) peptide; purchased Bachem, Torrance, Calif
Description: BASSR (Beta-Amyloid Self-Seeding Radioassay)
An assay for inhibitors of self-seeded amyloid fibril growth
Assay Buffer—[…] sodium phosphate, pH 7.5, 100 mM NaCl, 0.02% NaN3, 1 M urea (filter and store at 4° C.)
Soluble Aβ(1-40) peptide (Bachem, Torrance, Calif.)—2.2 mg/mL in deionized H2O (stored in aliquots at −20° C., keep on ice when thawed) will self-seed after 1 week storage. Typically, the solution should be stored until no lag phase is seen in the assay.
^125I-labeled Aβ(1-40)—150 to 350K cpm/μL in 100% acetonitrile—0.1% trifluoroacetic acid (TFA)—1% β-mercaptoethanol (aliquots stored at −20° C.). ^125I-labeled Aβ(1-40) can be made in accordance with the procedure set forth by H. Levine, III in Neurobiol. Aging, 16:755 (1995), which is hereby incorporated by reference, or this reagent may be purchased from Amersham, Arlington Heights, Ill. Final assay conditions: 30 μM soluble Aβ(1-40) in deionized water in assay buffer+20 to 50K cpm ^125I-labeled Aβ(1-40) per assay. Compound to be tested is dissolved in dimethylsulfoxide (DMSO), typically 5 to 50 mM stock, such that the final concentration of DMSO is <1% v/v in the assay. Assay: Reaction mixture for 50 assays (on ice) is comprised of 0.1 to 0.2 μL of ^125I-labeled A^125I-labeled Aβ(1-40)+1 μL of soluble Aβ(1-40)+13.5 μL assay buffer per assay. The following are the amounts of the components of the reaction mixture sufficient for 50 assay wells.
• 1) Prepare reaction mixture above by mixing components and storing on ice. • 2) Pipet 14.5 μL of reaction mixture into each of 50 wells on a polypropylene U-bottom 96-well microtiter plate on ice (Costar 3794). • 3) Add 1.7 μL of diluted compound to be tested to each well in a column of eight, including solvent control. Serial 3-fold dilutions from 1 mM (100 μM final) in assay buffer-urea=7 dilutions+zero. Each 96-well plate can therefore accommodate 11 samples+1 Congo Red control (0.039-5 μM final in 2-fold steps). • 4) Seal the plate with aluminum film (Beckman 538619) and incubate for 10 minutes on ice. • 5) Raise the temperature to 37° C. and incubate for 3 to 5 hours (depending on the lot of the peptide). • 6) Remove the aluminum film and add 200 μL/well of ice cold assay buffer with urea, collecting the radiolabeled fibrils by vacuum filtration through 0.2-μm pore size GVWP filters in 96-well plates (Millipore MAGV N22, Bedford, Mass.). Determine the radioactivity of the filters using standard methods well-known to those skilled in the art. BASST (Beta-Amyloid Self-Seeding, Thioflavin T)

T2 sequence (P05067 672-711 limits assumed): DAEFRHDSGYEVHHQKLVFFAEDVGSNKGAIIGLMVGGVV
T1 sequence (P05067 672-713 limits assumed): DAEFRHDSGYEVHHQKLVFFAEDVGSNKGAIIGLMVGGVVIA

Structure (SMILES) | IC50 (Aβ (1-42)) | IC50 (Soluble Aβ(1-40) peptide)
CCCCCN(CCCCC)C1Cc2ccc(Nc3ccc([N+](=O)[O-])cc3C(=O)O)cc2C1 (stereo not drawn) [Example 1, 2-[(2-N,N-di-n-pentylamino)-indan-5-yl]amino-5-nitro-benzoic Acid] | > 100 µM | > 100 µM
CCCCCNC1Cc2ccc(Nc3ccc([N+](=O)[O-])cc3C(=O)O)cc2C1 (stereo not drawn) [Example 12, 2-[2-(n-Pentylamino)-indan-5-ylamino]-5-nitro-benzoic acid] | > 100 µM | > 100 µM
CCCCCN(CCCCC)C1Cc2ccc(Nc3ccc(C(=O)O)cc3[N+](=O)[O-])cc2C1 (stereo not drawn) [Example 7, 4-(2-Dipentylamino-indan-5-yl-amino)-3-nitro-benzoic Acid] | > 100 µM | > 100 µM (3×) and 15 µM
COc1ccc(Nc2ccc3c(c2)CC(NCc2ccc(Cl)c(Cl)c2)C3)c(C(=O)O)c1 (stereo not drawn) [Example 5, 2-[2-(3,4-Dichlorobenzylamino)-indan-5-ylamino]-5-methoxy-benzoic acid] | > 100 µM | > 100 µM (2×) and 30 µM
CCCCCN(CCCCC)C1Cc2ccc(Nc3ccc(C)cc3C(=O)O)cc2C1 (stereo not drawn) [Example 6, 2-(2-Dipentylamino-indan-5-yl-amino)-5-methyl-benzoic acid] | > 100 µM | > 100 µM
O=C(O)c1cc([N+](=O)[O-])ccc1Nc1ccc2c(c1)CC(NCc1ccc(F)cc1)C2 (stereo not drawn) [Example 10, 2-[2-(4-Fluorobenzylamino)-indan-5-ylamino]-5-nitro-benzoic acid] | 53.8 µM | > 100 µM (2×) and 90 µM and 10 µM
